Measurements from BindingDB's records for doi:10.1021/jm0700924 (Astex Therapeutics, 2007).

Columns and labels:
[1] = molecular target: cAMP-dependent protein kinase catalytic subunit alpha (Bos taurus, UniProt P00517); experiment: PKA In Vitro Enzyme Assay; conditions: pH 7.2; 22 °C
[2] = molecular target: RAC-beta serine/threonine-protein kinase (Homo sapiens, UniProt P31751); experiment: PKB In Vitro Enzyme Assay; conditions: pH 7.2; 22 °C
Chain of RAC-beta serine/threonine-protein kinase (P31751 whole entry): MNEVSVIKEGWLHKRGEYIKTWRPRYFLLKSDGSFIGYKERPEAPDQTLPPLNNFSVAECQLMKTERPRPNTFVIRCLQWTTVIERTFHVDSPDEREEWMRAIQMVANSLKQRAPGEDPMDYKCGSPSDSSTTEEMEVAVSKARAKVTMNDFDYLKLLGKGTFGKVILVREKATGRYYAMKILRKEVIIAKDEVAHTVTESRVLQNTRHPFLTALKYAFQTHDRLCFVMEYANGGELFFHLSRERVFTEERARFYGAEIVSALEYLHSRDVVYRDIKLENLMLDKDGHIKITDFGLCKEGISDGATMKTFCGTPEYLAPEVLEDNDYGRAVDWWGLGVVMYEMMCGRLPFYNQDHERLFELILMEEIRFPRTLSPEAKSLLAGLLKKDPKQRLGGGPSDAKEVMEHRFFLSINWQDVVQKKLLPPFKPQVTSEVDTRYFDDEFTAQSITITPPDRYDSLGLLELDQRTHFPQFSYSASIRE

CNCC(c1ccc(Cl)cc1)c1ccc(-c2ncnc3nc[nH]c23)cc1 (configuration not stated) [[2-(4-chlorophenyl)-2-[4-(9H-purin-6-yl)phenyl]ethyl](methyl)amine]
IC50 [1]: 0.015 µM
IC50 [2]: 0.01 µM
